# Experimental data as given in ChEMBL document CHEMBL1201862, “PubChem BioAssay data set” (2004).
#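 Method: 48-hour compound exposure of cells in 96-well plates, five concentrations, linear interpolation of endpoints. GI50 is the concentration that inhibits growth by half.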 Calls of active or inactive are those of the source. Rule as the data show it: active = GI50 up to about 1.1 µM and inactive = higher.
# How the values were obtained:
# Experiment in all cases: NCI tumour cell line growth inhibition, 48 h
# [1] = tested on: HT-29
# [2] = tested on: SK-MEL-5
# [3] = tested on: MDA-MB-231
# [4] = tested on: 786-0
# [5] = tested on: NCI/ADR-RES
# [6] = tested on: HOP-92
# [7] = tested on: A549
# [8] = tested on: A498
# [9] = tested on: TK-10
# [10] = tested on: BT-549
# [11] = tested on: MDA-N
# [12] = tested on: NCI-H460
# [13] = tested on: NCI-H522
# [14] = tested on: Malme-3M
# [15] = tested on: SF-539
# [16] = tested on: Hs-578T
# [17] = tested on: M14
# [18] = tested on: EKVX
# [19] = tested on: U-251
# [20] = tested on: SNB-78
SMILES,GI50 [1],GI50 [2],GI50 [3],GI50 [4],GI50 [5],GI50 [6],GI50 [7],GI50 [8],GI50 [9],GI50 [10],GI50 [11],GI50 [12],GI50 [13],GI50 [14],GI50 [15],GI50 [16],GI50 [17],GI50 [18],GI50 [19],GI50 [20]
CCCN(CCCCN1C(=O)c2ccccc2C1=O)CC1COc2ccccc2O1 (stereo unspecified),33.6 µM (inactive),28.6 µM (inactive),> 100 µM (inactive),> 100 µM (inactive),61.1 µM (inactive),29.4 µM (inactive),> 100 µM (inactive),> 100 µM (inactive),> 100 µM (inactive),> 100 µM (inactive),> 100 µM (inactive),53.5 µM (inactive),> 100 µM (inactive),> 100 µM (inactive),83.2 µM (inactive),> 100 µM (inactive),> 100 µM (inactive),> 100 µM (inactive),74 µM (inactive),
CC(=O)OCC12C(OC(C)=O)C[C@@H](C)C3(CC(c4ccoc4)OC3=O)C1CCC(OC(C)=O)C21CO1 (stereo partly specified),> 100 µM (inactive),> 100 µM (inactive),> 100 µM (inactive),> 100 µM (inactive),> 100 µM (inactive),> 100 µM (inactive),> 100 µM (inactive),> 100 µM (inactive),> 100 µM (inactive),> 100 µM (inactive),> 100 µM (inactive),> 100 µM (inactive),> 100 µM (inactive),> 100 µM (inactive),> 100 µM (inactive),> 100 µM (inactive),> 100 µM (inactive),> 100 µM (inactive),> 100 µM (inactive),
C=C(Cl)C(Cl)(CBr)CCC(Cl)C(C)(C)Cl (stereo unspecified),0.331 µM (active),10.6 µM (inactive),2.16 µM (inactive),0.388 µM (active),3.01 µM (inactive),1.16 µM (inactive),2.96 µM (inactive),1.77 µM (inactive),1.14 µM (inactive),5.47 µM (inactive),1.81 µM (inactive),1.19 µM (inactive),8.2 µM (inactive),7.24 µM (inactive),0.443 µM (active),0.0237 µM (active),17.9 µM (inactive),8.38 µM (inactive),0.597 µM (active),
CCOP(=O)(OCC)/C(F)=C/c1ccc(F)cc1,> 100 µM (inactive),> 100 µM (inactive),> 100 µM (inactive),> 100 µM (inactive),> 100 µM (inactive),> 100 µM (inactive),> 100 µM (inactive),> 100 µM (inactive),> 100 µM (inactive),> 100 µM (inactive),> 100 µM (inactive),> 100 µM (inactive),> 100 µM (inactive),> 100 µM (inactive),> 100 µM (inactive),> 100 µM (inactive),> 100 µM (inactive),> 100 µM (inactive),> 100 µM (inactive),
COc1ccc2[nH]c3c(C)c4ccnc(NCCCN(C)CCCN)c4c(C)c3c2c1,0.042 µM (active),0.178 µM (active),0.0873 µM (active),0.0596 µM (active),0.394 µM (active),0.13 µM (active),0.0442 µM (active),0.217 µM (active),0.166 µM (active),1.76 µM (inactive),0.214 µM (active),0.091 µM (active),0.0189 µM (active),0.31 µM (active),0.118 µM (active),0.0364 µM (active),0.171 µM (active),0.225 µM (active),0.0803 µM (active),
COC(=O)C1=C(C)NC2(C)OC(C)(O)C(C(C)=O)C12C(C)=O (stereo unspecified),81.3 µM (inactive),> 100 µM (inactive),20.7 µM (inactive),> 100 µM (inactive),> 100 µM (inactive),33.2 µM (inactive),> 100 µM (inactive),60.5 µM (inactive),> 100 µM (inactive),66.5 µM (inactive),> 100 µM (inactive),> 100 µM (inactive),> 100 µM (inactive),23.4 µM (inactive),24.3 µM (inactive),25.4 µM (inactive),60.5 µM (inactive),> 100 µM (inactive),43.7 µM (inactive),
OCC(O)C(O)C(O)c1nn(-c2ccc(Cl)cc2)c2nc3cc(Cl)c(Cl)cc3nc12 (stereo unspecified),> 100 µM (inactive),,,65.6 µM (inactive),,,32.4 µM (inactive),,32.4 µM (inactive),,,68.7 µM (inactive),27.1 µM (inactive),15.2 µM (inactive),42.8 µM (inactive),,22.7 µM (inactive),22.8 µM (inactive),57.5 µM (inactive),20.7 µM (inactive)
CCN(CC)C1=Nc2ccccc2-n2c(C)cnc2C1,> 100 µM (inactive),> 100 µM (inactive),> 100 µM (inactive),> 100 µM (inactive),> 100 µM (inactive),> 100 µM (inactive),> 100 µM (inactive),> 100 µM (inactive),> 100 µM (inactive),> 100 µM (inactive),> 100 µM (inactive),> 100 µM (inactive),> 100 µM (inactive),> 100 µM (inactive),> 100 µM (inactive),> 100 µM (inactive),> 100 µM (inactive),> 100 µM (inactive),> 100 µM (inactive),
OCC(O)C(O)C(O)c1nnn[nH]1 (stereo unspecified),> 100 µM (inactive),> 100 µM (inactive),,> 100 µM (inactive),,> 100 µM (inactive),,,,,,> 100 µM (inactive),> 100 µM (inactive),> 100 µM (inactive),> 100 µM (inactive),,> 100 µM (inactive),> 100 µM (inactive),> 100 µM (inactive),> 100 µM (inactive)
CC(=O)O/C(=C(/C#N)C(=O)O)C1C(C(=O)O)C(c2ccccc2[N+](=O)[O-])C=C(c2ccco2)N1c1ccncc1 (stereo unspecified),1.61 µM (inactive),2.94 µM (inactive),4.78 µM (inactive),2.82 µM (inactive),8.57 µM (inactive),16 µM (inactive),3.41 µM (inactive),11.2 µM (inactive),3.33 µM (inactive),6.04 µM (inactive),2.81 µM (inactive),6.35 µM (inactive),2.09 µM (inactive),8.43 µM (inactive),1.95 µM (inactive),8.93 µM (inactive),2.87 µM (inactive),9.25 µM (inactive),2.11 µM (inactive),
N#Cc1c(-c2ccc(Cl)cc2)cc(-c2ccc(Nc3ccnc4cc(Cl)ccc34)cc2)[nH]c1=O,> 100 µM (inactive),> 100 µM (inactive),34.4 µM (inactive),17.6 µM (inactive),> 100 µM (inactive),18.1 µM (inactive),> 100 µM (inactive),50.4 µM (inactive),13.1 µM (inactive),19.6 µM (inactive),> 100 µM (inactive),> 100 µM (inactive),> 38.6 µM (inactive),> 65.8 µM (inactive),> 95.7 µM (inactive),16.5 µM (inactive),> 100 µM (inactive),> 82.2 µM (inactive),15.5 µM (inactive),
O=C(N/N=C\c1ccc(Cl)cc1)Nc1ccc2ccccc2c1,46.2 µM (inactive),> 100 µM (inactive),41.9 µM (inactive),19.3 µM (inactive),49.3 µM (inactive),29.6 µM (inactive),52 µM (inactive),30.9 µM (inactive),55.5 µM (inactive),56.6 µM (inactive),86.7 µM (inactive),28.5 µM (inactive),38.9 µM (inactive),32.8 µM (inactive),27.8 µM (inactive),26.9 µM (inactive),59.2 µM (inactive),64.9 µM (inactive),23.9 µM (inactive),
Nc1ccn(C=C=CCO)c(=O)n1,> 100 µM (inactive),> 100 µM (inactive),> 100 µM (inactive),> 100 µM (inactive),> 100 µM (inactive),> 66.4 µM (inactive),> 100 µM (inactive),> 100 µM (inactive),> 100 µM (inactive),> 100 µM (inactive),> 100 µM (inactive),> 100 µM (inactive),> 77.3 µM (inactive),> 100 µM (inactive),> 100 µM (inactive),> 100 µM (inactive),> 100 µM (inactive),> 100 µM (inactive),> 100 µM (inactive),
O=C(c1ccccc1)c1ccc2nc3n(c2c1)C(c1c(F)cccc1F)SC3 (stereo unspecified),4.93 µM (inactive),4.08 µM (inactive),12.9 µM (inactive),4.2 µM (inactive),2.99 µM (inactive),10.9 µM (inactive),4.79 µM (inactive),3.7 µM (inactive),22.9 µM (inactive),17.3 µM (inactive),1.34 µM (inactive),3.98 µM (inactive),2.01 µM (inactive),5.68 µM (inactive),10.3 µM (inactive),8.55 µM (inactive),3.46 µM (inactive),3.56 µM (inactive),6.67 µM (inactive),
C/C(=N\NC(=S)NCc1ccccc1)c1nc2cccnc2[nH]1,3.48 µM (inactive),3.57 µM (inactive),17.3 µM (inactive),6.92 µM (inactive),9.98 µM (inactive),4.37 µM (inactive),6.38 µM (inactive),17.3 µM (inactive),15.2 µM (inactive),6.12 µM (inactive),11.3 µM (inactive),4.29 µM (inactive),15.1 µM (inactive),13.4 µM (inactive),5.73 µM (inactive),18.3 µM (inactive),6.01 µM (inactive),2.88 µM (inactive),5.3 µM (inactive),
